Legend:
Assay type in all cases: in vivo
[1] = tested on: canarygrass (Phalaris minor); test: Test B postemergence plant response; conditions: for Canarygrass plant response rating (0 to 100 scale): 62 g ai/ha, 0 is no effect, 13 to 15 days
Procedure, shortened: (§1)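 Visual ratings from 0 (no effect) to 100 (complete control), made against controls 13–15 days after treatment, kept in a greenhouse. Compounds were applied postemergence to potted plants at the 1- to 4-leaf stage (2–18 cm).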

[2] = tested on: chickweed (Stellaria media); test: Test B postemergence plant response; conditions: for Chickweed plant response rating (0 to 100 scale): 62 g ai/ha, 0 is no effect, 13 to 15 days
Procedure, shortened: as §1

[3] = tested on: winter barley (Hordeum vulgare); test: Test B postemergence plant response; conditions: for Barley plant response rating (0 to 100 scale): 62 g ai/ha, 0 is no effect, 13 to 15 days
Procedure, shortened: as §1

[4] = tested on: windgrass (Apera spica-venti); test: Test B postemergence plant response; conditions: for Windgrass plant response rating (0 to 100 scale): 62 g ai/ha, 0 is no effect, 13 to 15 days
Procedure, shortened: as §1

[5] = tested on: morningglory (Ipomoea coccinea); test: Test B pre-/postemergence plant response; conditions: for Morningglory plant response rating (0 to 100 scale): 62 g ai/ha, 0 is no effect, 13 to 15 days
Procedure, shortened: (§2)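 Compound in solvent + surfactant applied pre-em (loam/sand) or post-em (plants 2–18 cm, peat medium); greenhouse hold 13–15 days; visual 0–100 control score.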

soybean (Glycine max) = test: Test B pre-/postemergence plant response; conditions: for Soybean plant response rating (0 to 100 scale): 62 g ai/ha, 0 is no effect, 13 to 15 days
Procedure, shortened: as §2

[6] = tested on: cocklebur (Xanthium strumarium); test: Test B pre-/postemergence plant response; conditions: for Cocklebur plant response rating (0 to 100 scale): 62 g ai/ha, 0 is no effect, 13 to 15 days
Procedure, shortened: as §2

[7] = tested on: bermudagrass (Cynodon dactylon); test: Test B pre-/postemergence plant response; conditions: for Bermudagrass plant response rating (0 to 100 scale): 62 g ai/ha, 0 is no effect, 13 to 15 days
Procedure, shortened: as §2

[8] = tested on: blackgrass (Alopecurus myosuroides); test: Test B pre-/postemergence plant response; conditions: for Blackgrass plant response rating (0 to 100 scale): 62 g ai/ha, 0 is no effect, 13 to 15 days
Procedure, shortened: as §2

corn (Zea mays) = test: Test B pre-/postemergence plant response; conditions: for Corn plant response rating (0 to 100 scale): 62 g ai/ha, 0 is no effect, 13 to 15 days
Procedure, shortened: as §2

wild oat (Avena fatua) = test: Test B pre-/postemergence plant response; conditions: for Oat, Wild plant response rating (0 to 100 scale): 62 g ai/ha, 0 is no effect, 13 to 15 days
Procedure, shortened: as §2

[9] = tested on: johnsongrass (Sorghum halepense); test: Test B pre-/postemergence plant response; conditions: for Johnsongrass plant response rating (0 to 100 scale): 62 g ai/ha, 0 is no effect, 13 to 15 days
Procedure, shortened: as §2

kochia (Kochia scoparia) = test: Test B pre-/postemergence plant response; conditions: for Kochia plant response rating (0 to 100 scale): 62 g ai/ha, 0 is no effect, 13 to 15 days
Procedure, shortened: as §2

[10] = tested on: giant foxtail (Setaria faberii); test: Test B pre-/postemergence plant response; conditions: for Foxtail, Giant plant response rating (0 to 100 scale): 62 g ai/ha, 0 is no effect, 13 to 15 days
Procedure, shortened: as §2

[11] = 31 g ai/ha, postemergence, scale 0 to 100, 0 is no effect, 100 is complete control
[12] = postemergence, 100 is complete control
[13] = Postemergence, 125 g ai/ha, visual rating after 13 to 15 days, scale 0 (no effect) to 100 (complete control)
[14] = Postemergence, 250 g ai/ha, scale 0 to 100 (0 no effect, 100 complete control)

COCCn1c(-c2ccccc2)ncc(C(=O)C2=C(O)CCCC2=O)c1=O [Compound 85]
Plant response rating, Canarygrass [1, 11]: 35
Canarygrass plant response rating (0 to 100 scale) [1, 12]: 40
Plant response rating, Canarygrass [1, 13]: 55
Plant response rating, Canarygrass [1, 14]: 60
Plant response rating, Chickweed [2, 11]: 85
Chickweed plant response rating (0 to 100 scale) [2, 12]: 95
Plant response rating, Chickweed [2, 13]: 95
Plant response rating, Chickweed [2, 14]: 98
Plant response rating, Barley [3, 11]: 5
Barley plant response rating (0 to 100 scale) [3, 12]: 10
Plant response rating, Barley [3, 13]: 20
Plant response rating, Barley [3, 14]: 20
Plant response rating, Windgrass [4, 11]: 40
Windgrass plant response rating (0 to 100 scale) [4, 12]: 70
Plant response rating, Windgrass [4, 14]: 95
Plant response rating, Morningglory [5, 11]: 95
Morningglory plant response rating (0 to 100 scale) [5, 12]: 100
Plant response rating, Morningglory [5, 14]: 100
Plant response rating, Soybean (soybean (Glycine max); [11]): 80
Soybean plant response rating (0 to 100 scale) (soybean (Glycine max); [12]): 85
Plant response rating, Soybean (soybean (Glycine max); [14]): 95
Plant response rating, Cocklebur [6, 11]: 95
Cocklebur plant response rating (0 to 100 scale) [6, 12]: 95
Plant response rating, Cocklebur [6, 13]: 98
Plant response rating, Cocklebur [6, 14]: 98
Plant response rating, Bermudagrass [7, 11]: 85
Bermudagrass plant response rating (0 to 100 scale) [7, 12]: 85
Plant response rating, Bermudagrass [7, 13]: 90
Plant response rating, Bermudagrass [7, 14]: 90
Plant response rating, Blackgrass [8, 11]: 5
Blackgrass plant response rating (0 to 100 scale) [8, 12]: 35
Plant response rating, Blackgrass [8, 13]: 35
Plant response rating, Blackgrass [8, 14]: 50
Plant response rating, Corn (corn (Zea mays); [11]): 50
Corn plant response rating (0 to 100 scale) (corn (Zea mays); [12]): 70
Plant response rating, Corn (corn (Zea mays); [13]): 85
Plant response rating, Corn (corn (Zea mays); [14]): 85
Plant response rating, Oat, Wild (wild oat (Avena fatua); [11]): 5
Oat, Wild plant response rating (0 to 100 scale) (wild oat (Avena fatua); [12]): 25
Plant response rating, Oat, Wild (wild oat (Avena fatua); [14]): 60
Plant response rating, Johnsongrass [9, 11]: 80
Johnsongrass plant response rating (0 to 100 scale) [9, 12]: 95
Plant response rating, Johnsongrass [9, 14]: 98
Plant response rating, Kochia (kochia (Kochia scoparia); [11]): 75
Kochia plant response rating (0 to 100 scale) (kochia (Kochia scoparia); [12]): 85
Plant response rating, Kochia (kochia (Kochia scoparia); [14]): 90
Plant response rating, Foxtail, Giant [10, 11]: 75
Foxtail, Giant plant response rating (0 to 100 scale) [10, 12]: 80
Plant response rating, Foxtail, Giant [10, 14]: 98

CCCCn1c(-c2ccccc2)ncc(C(=O)C2=C(O)CCCC2=O)c1=O [Compound 86]
Plant response rating, Canarygrass [1, 11]: 20
Canarygrass plant response rating (0 to 100 scale) [1, 12]: 20
Plant response rating, Canarygrass [1, 13]: 80
Plant response rating, Canarygrass [1, 14]: 85
Plant response rating, Chickweed [2, 11]: 80
Chickweed plant response rating (0 to 100 scale) [2, 12]: 95
Plant response rating, Chickweed [2, 13]: 95
Plant response rating, Chickweed [2, 14]: 98
Plant response rating, Barley [3, 11]: 30
Barley plant response rating (0 to 100 scale) [3, 12]: 40
Plant response rating, Barley [3, 13]: 60
Plant response rating, Barley [3, 14]: 65
Plant response rating, Windgrass [4, 11]: 30
Windgrass plant response rating (0 to 100 scale) [4, 12]: 60
Plant response rating, Windgrass [4, 14]: 95
Plant response rating, Morningglory [5, 11]: 70
Morningglory plant response rating (0 to 100 scale) [5, 12]: 80
Plant response rating, Morningglory [5, 14]: 100
Plant response rating, Soybean (soybean (Glycine max); [11]): 80
Soybean plant response rating (0 to 100 scale) (soybean (Glycine max); [12]): 95
Plant response rating, Soybean (soybean (Glycine max); [14]): 98
Plant response rating, Cocklebur [6, 11]: 85
Cocklebur plant response rating (0 to 100 scale) [6, 12]: 95
Plant response rating, Cocklebur [6, 13]: 95
Plant response rating, Cocklebur [6, 14]: 98
Plant response rating, Bermudagrass [7, 11]: 85
Bermudagrass plant response rating (0 to 100 scale) [7, 12]: 90
Plant response rating, Bermudagrass [7, 13]: 95
Plant response rating, Bermudagrass [7, 14]: 95
Plant response rating, Blackgrass [8, 11]: 15
Blackgrass plant response rating (0 to 100 scale) [8, 12]: 30
Plant response rating, Blackgrass [8, 13]: 45
Plant response rating, Blackgrass [8, 14]: 55
Plant response rating, Corn (corn (Zea mays); [11]): 10
Corn plant response rating (0 to 100 scale) (corn (Zea mays); [12]): 60
Plant response rating, Corn (corn (Zea mays); [13]): 80
Plant response rating, Corn (corn (Zea mays); [14]): 85
Plant response rating, Oat, Wild (wild oat (Avena fatua); [11]): 20
Oat, Wild plant response rating (0 to 100 scale) (wild oat (Avena fatua); [12]): 50
Plant response rating, Oat, Wild (wild oat (Avena fatua); [14]): 80
Plant response rating, Johnsongrass [9, 11]: 95
Johnsongrass plant response rating (0 to 100 scale) [9, 12]: 98
Plant response rating, Johnsongrass [9, 14]: 100
Plant response rating, Kochia (kochia (Kochia scoparia); [11]): 75
Kochia plant response rating (0 to 100 scale) (kochia (Kochia scoparia); [12]): 85
Plant response rating, Kochia (kochia (Kochia scoparia); [14]): 98
Plant response rating, Foxtail, Giant [10, 11]: 90
Foxtail, Giant plant response rating (0 to 100 scale) [10, 12]: 95
Plant response rating, Foxtail, Giant [10, 14]: 98
